# Experimental data reported in US11850283B2, “Liponucleotide-based therapy for asthma” (priority 2017, dated 2023).
# “Also recorded” adds a separate entry of the source. Marks after values point to notes of the source that are not given here.
# How the values were obtained:
# influenza-infected mice = assay: Effect of influenza infection and CDP-CHO treatment on lung inflammation; assay type: in vivo; settings: day 6; 100 μg/mouse i.p., daily from 1-5 days post-infection
# [1] = test system: mitochondria, influenza-infected mice; assay: Effect of influenza infection and CDP-CHO treatment on mitochondrial function; assay type: in vivo; settings: day 6; 100 μg/mouse i.p., daily from 1-5 days post-infection
# [2] = test system: ATII cells from influenza A/WSN/33 (H1N1)-infected mice; assay: Effect of influenza infection and CDP-CHO treatment on ATII cell ultrastructure; assay type: in vivo, mouse
# From the text: FIG. 14 is a group of three transmission electron micrographs showing effects of CDP-CHO treatment on ultrastructure of ATII cell lamellar bodies (composed of surfactant lipids and proteins). Relative to mock-infected controls, lamellar bodies in ATII cells from influenza A/WSN/33 (H1N1)-infected mice are smaller and have disordered lamellae.
# FIG. 15 is a group of 3 transmission electron micrographs showing effects of influenza infection on ultrastructure of ATII cell mitochondria (Mi). Relative to mock-infected controls (left), Mi in ATII cells from A/WSN/33 (H1N1)-infected mice (center) are fewer in number, less electron dense, and have disordered membranes and cristae.
# [3] = test system: mouse model of asthma (dust mite/ragweed/Aspergillus fumigatus [DRA] triple antigen exposure); assay: BALF total and differential cell counts in DRA mouse model of asthma; assay type: in vivo, BALB/c mice
# Experimental: (§1) To experimentally determine the efficacy of the liponucleotides (lipoNTs) CDP-choline (CDP-CHO), CDP-ethanolamine (CDP-ETH), and CDP-diacylglycerol 16:0/16:0 (CDP-DAG) as therapeutics in a mouse model of asthma (dust mite/ragweed/Aspergillus fumigatus [DRA] triple antigen exposure) (Chung S, et al. Oncotarget 2016 7:17532-17546).
# (§2) To induce asthma, adult female BALB/c mice (n=4-5 per group) were sensitized with 50 μl alum+50 μl sterile saline containing dust mite allergen (5 μg/mouse)+ragweed allergen (5 μg/mouse)+Aspergillus allergen (5 μg/mouse) by i.p. injection on days 0 and 5. Mice were then challenged intranasally with dust mite allergen (8.3 μg/mouse)+ragweed allergen ([…])+Aspergillus allergen (8.3 μg/mouse) in 30 μl saline on days 12, 13, and 14, under isoflurane anesthesia. LipoNTs were administered daily by the intraperitoneal route in 50 μl sterile saline.
# (§3) Data were collected 15 days after first exposure to DRA in terminal experiments.
# Following flexiVent analysis, bronchoalveolar lavage was performed on all mice using 0.8 ml PBS. BALF total and differential cell counts (trypan-blue stained live cells and Giemsa-stained cytospins, respectively) were performed on cell pellets to assess inflammatory cell infiltrates. BALF eosinophil (EO), alveolar macrophage (AM), and neutrophil (PMN) counts were determined.
# [4] = test system: mouse model of asthma (dust mite/ragweed/Aspergillus fumigatus [DRA] triple antigen exposure); assay: Airway hyperresponsiveness to methacholine (flexiVent) in DRA mouse model of asthma; assay type: in vivo, BALB/c mice
# Experimental: as §1, §2, §3
# Airway hyperresponsiveness (AHR) was measured by the forced-oscillation method using the SciReq flexiVent computer-controlled mechanical ventilator. […] Airway resistance at each methacholine dose was quantified by the single-compartment model. […]
# [5] = test system: mouse model of asthma (dust mite/ragweed/Aspergillus fumigatus [DRA] triple antigen exposure); assay: BALF cytokine and chemokine content by ELISA in DRA mouse model of asthma; assay type: in vivo, BALB/c mice; settings: treatment days 1-14 i.p. daily, mean ± SEM
# Experimental: as §1, §2, §3
# BAL supernatant fluid was stored at −20° C. for subsequent measurement of cytokine and/or chemokine content by ELISA using commercially available kits in accordance with manufacturers' instructions.
# [6] = test system: influenza A/WSN/33 (H1N1)-infected mice; assay: Effect of influenza infection and i.p. liponucleotide treatment on lung function; assay type: in vivo, mouse; settings: for CST / HR (bpm) / RBASAL / SaO2 (%) / WET:DRY: day 6
# From the text: SaO2 increased from approximately 85% to approximately 96%. This is equivalent to an increase in PaO2 from approximately 65 mmHg to approximately 85 mmHg. It is also equivalent to an increase in O2 carrying capacity of blood (CaO2) from approximately 88% to approximately 97% of normal. Patients with an SaO2 of 96% or a […] would not require additional treatment
# [7] = ATII cells of infected mice, result in words
# [8] = day 6, 100 μg/mouse i.p., daily from 1-5 days post-infection
# [9] = treatment days 1-14, result in words
# [10] = treatment days 1-14 i.p. daily, day 15, mean ± SEM
# [11] = 100 μg/mouse i.p. on day 5 only
# [12] = i.p. daily from 1-5 days post-infection, CDP-CHO 100 μg/mouse, CDP-DAG 10 μg/mouse
# [13] = i.p. daily from 1-5 days post-infection, CDP-CHO and CDP-ETH 100 μg/mouse, CDP-DAG 10 μg/mouse
molecule,measurement,setting,value
"C[N+](C)(C)CCO[P@TB16](=O)(O)O[P@TB16](=O)(O)OC[C@H]1O[C@@H](n2ccc(N)nc2=O)[C@H](O)[C@@H]1O [CDP-CHO, CDP-choline]",BALF ALVEOLAR MACS (×10^6/ml),influenza-infected mice,1.08 ± 0.21 ×10^6/ml
same,BALF NEUTROPHILS (×10^6/ml),influenza-infected mice,0.45 ± 0.07 ×10^6/ml
same,BALF PC,influenza-infected mice,1.61 ± 0.45
same,VIRAL TITER (log PFU/g),influenza-infected mice,5.32 ± 0.07 log PFU/g
same,MITOCHONDRIAL MEMBRANE POTENTIAL (ψm; DilC1(5) MCF),[1],10.14 ± 2.3
same,MIT[…] PRODUCTION,[1],36.91 ± 6.82
same,ATII cell mitochondria (Mi) morphology (transmission electron micrographs),[2]; [7],more electron-dense and have more normal cristae; also recorded: display normal morphology
same,lamellar body morphology (transmission electron micrographs),[2]; [7],improves lamellar body morphology
same,ATII CELL AREA (μm^2),[2]; [8],53.64 ± 5.63* μm^2
same,LAMELLAR BODIES/CELL,[2]; [8],8.1 ± 1.16
same,LAMELLAR BODY AREA (μm^2),[2]; [8],0.41 ± 0.04* μm^2
same,MITOCHONDRIAL/CELL,[2]; [8],14.5 ± 1.78
same,MIT[…] (μm^2),[2]; [8],0.34 ± 0.01* μm^2
same,anti-inflammatory effect (BALF leukocyte counts),[3]; [9],decreases BALF EO and AM counts
same,BALF AMs (×10^6),[3]; [10],0.14 ± 0.03 ×10^6
same,BALF EOs (×10^6),[3]; [10],0.26 ± 0.03 ×10^6
same,BALF PMNs (×10^6),[3]; [10],0.1 ± 0.03 ×10^6
same,DRA-induced AHR,[4]; [9],does not attenuate
same,RMAX (cmH2O · s/ml),"[4]; treatment days 1-14 i.p. daily, CDP-CHO, CDP-ETH 5 mg/kg, CDP-DAG 0.5 mg/kg, peak airway resistance at 50 mg/ml methacholine, day 15, mean ± SEM",2.65 ± 0.06 cmH2O · s/ml
same,"CCL-11 (pg/ml), also known as eotaxin-1",[5],18 ± 8 pg/mL
same,IL-5,[5],16 ± 5 pg/mL
same,IL-17,[5],5 ± 1 pg/mL
same,CST,[6]; [11],0.05 ± 0.006
same,HR (bpm),[6]; [11],550 ± 10 bpm
same,RBASAL,[6]; [11],1.63 ± 0.22
same,SaO2 (%),[6]; [11],92.9 ± 1.5 %
same,WET:DRY,[6]; [11],6.2 ± 0.2
same,CST,[6]; [12],0.05 ± 0.002
same,RBASAL,[6]; [12],1.96 ± 0.12
same,HR (bpm),[6]; [13],570 ± 10 bpm
same,SaO2 (%),[6]; [13],93.5 ± 1.0 %
same,WET:DRY,[6]; [13],6.2 ± 0.4
same,PaO2,"[6]; equivalent of the SaO2 increase, from approximately 65 mmHg",approximately 85 mmHg
same,O2 carrying capacity of blood (CaO2),"[6]; equivalent of the SaO2 increase, from approximately 88%",approximately 97 % of normal
same,SaO2,"[6]; infected mice, CDP-CHO treatment, increased from approximately 85%",approximately 96%
same,Effects of single dose treatment late in infection compared with daily treatment,"[6]; infected mice, result in words",as good as those of daily treatment
same,cardiac function,"[6]; infected mice, result in words",improved cardiac function
same,lung function,"[6]; infected mice, result in words",better lung function
same,oxygenation,"[6]; infected mice, result in words",improved oxygenation
same,pulmonary edema,"[6]; infected mice, result in words",reduced pulmonary edema
"NCCO[P@SP3](=O)(O)O[P@SP3](=O)(O)OC[C@H]1O[C@@H](n2ccc(N)nc2=O)[C@H](O)[C@@H]1O [CDP-ETH, CDP-ethanolamine]",HR (bpm),[6]; [13],540 ± 20 bpm
same,SaO2 (%),[6]; [13],91.1 ± 1.5%
same,WET:DRY,[6]; [13],6.5 ± 0.4
CDP-diacylglycerol [CDP-DAG],HR (bpm),[6]; [13],600 ± 10 bpm
same,SaO2 (%),[6]; [13],95.2 ± 1.6 %
same,WET:DRY,[6]; [13],5.8 ± 0.1
